Publication PMC8800111 (The Journal of Biological Chemistry, 2021)

How the values were obtained:
Assay type in all cases: cell-based
[1] = biological target: proteins of U3A human fibrosarcoma cells (4462 proteins detected) (Homo sapiens, UniProt Q8NI22); conditions: protein MCFD2, U3A cells
[2] = biological target: proteins of U3A human fibrosarcoma cells (4462 proteins detected) (Homo sapiens, UniProt P48637); conditions: protein GSS; soluble abundance after heat, U3A cells
[3] = biological target: proteins of U3A human fibrosarcoma cells (4462 proteins detected) (Homo sapiens, UniProt Q15428); conditions: protein SF3A2; U3A cells
[4] = biological target: proteins of U3A human fibrosarcoma cells (4462 proteins detected) (Homo sapiens, UniProt Q9GZQ3); conditions: protein COMMD5; U3A cells
[5] = biological target: proteins of U3A human fibrosarcoma cells (4462 proteins detected) (Homo sapiens, UniProt Q16610); conditions: protein ECM1; U3A, 10 μM, 2 h
[6] = biological target: proteins of U3A human fibrosarcoma cells (4462 proteins detected) (Homo sapiens, UniProt Q6P3W7); conditions: protein SCYL2, U3A cells
[7] = biological target: proteins of U3A human fibrosarcoma cells (4462 proteins detected) (Homo sapiens, UniProt O60462); conditions: protein NRP2; soluble abundance after heat, U3A cells
[8] = biological target: proteins of U3A human fibrosarcoma cells (4462 proteins detected) (Homo sapiens, UniProt Q9P2R7); conditions: protein SUCLA2; U3A, 10 μM, 2 h
[9] = biological target: proteins of U3A human fibrosarcoma cells (4462 proteins detected) (Homo sapiens, UniProt Q96DM3); conditions: protein C18orf8; U3A cells
[10] = biological target: proteins of U3A human fibrosarcoma cells (4462 proteins detected) (Homo sapiens, UniProt Q13263); conditions: protein TRIM28; U3A cells
[11] = biological target: proteins of U3A human fibrosarcoma cells (4462 proteins detected) (Homo sapiens, UniProt Q8WW01); conditions: protein TSEN15; U3A, 10 μM, 2 h
[12] = biological target: proteins of U3A human fibrosarcoma cells (4462 proteins detected) (Homo sapiens, UniProt P34896); conditions: protein SHMT1, U3A cells
[13] = biological target: proteins of U3A human fibrosarcoma cells (4462 proteins detected) (Homo sapiens, UniProt Q9BUJ2); conditions: protein HNRNPUL1, U3A cells
[14] = biological target: proteins of U3A human fibrosarcoma cells (4462 proteins detected) (Homo sapiens, UniProt O00391); conditions: protein QSOX1; U3A cells
[15] = biological target: proteins of U3A human fibrosarcoma cells (4462 proteins detected) (Homo sapiens, UniProt Q9P0K7); conditions: protein RAI14; soluble abundance after heat, U3A cells
[16] = biological target: proteins of U3A human fibrosarcoma cells (4462 proteins detected) (Homo sapiens, UniProt Q8IXJ6); conditions: protein SIRT2; U3A cells
[17] = biological target: proteins of U3A human fibrosarcoma cells (4462 proteins detected) (Homo sapiens, UniProt O75367); conditions: protein H2AFY; U3A, 10 μM, 2 h
[18] = biological target: proteins of U3A human fibrosarcoma cells (4462 proteins detected) (Homo sapiens, UniProt P61313); conditions: protein RPL15; U3A cells
[19] = biological target: proteins of U3A human fibrosarcoma cells (4462 proteins detected) (Homo sapiens, UniProt Q9NRZ9); conditions: protein HELLS; soluble abundance after heat, U3A cells
[20] = biological target: proteins of U3A human fibrosarcoma cells (4462 proteins detected) (Homo sapiens, UniProt P35221); conditions: protein CTNNA1; U3A, 10 μM, 2 h
[21] = biological target: proteins of U3A human fibrosarcoma cells (4462 proteins detected) (Homo sapiens, UniProt Q9Y221); conditions: protein NIP7; soluble abundance after heat, U3A cells
[22] = biological target: proteins of U3A human fibrosarcoma cells (4462 proteins detected) (Homo sapiens, UniProt Q9HCD5); conditions: protein NCOA5; U3A cells
[23] = biological target: proteins of U3A human fibrosarcoma cells (4462 proteins detected) (Homo sapiens, UniProt Q9NQW6); conditions: protein ANLN; soluble abundance after heat, U3A cells
[24] = biological target: proteins of U3A human fibrosarcoma cells (4462 proteins detected) (Homo sapiens, UniProt Q6AI12); conditions: protein ANKRD40, U3A cells
[25] = biological target: proteins of U3A human fibrosarcoma cells (4462 proteins detected) (Homo sapiens, UniProt Q14974); conditions: protein KPNB1; soluble abundance after heat, U3A cells
[26] = biological target: proteins of U3A human fibrosarcoma cells (4462 proteins detected) (Homo sapiens, UniProt P62906); conditions: protein RPL10A; U3A cells
[27] = biological target: proteins of U3A human fibrosarcoma cells (4462 proteins detected) (Homo sapiens, UniProt O15400); conditions: protein STX7; U3A cells
[28] = biological target: proteins of U3A human fibrosarcoma cells (4462 proteins detected) (Homo sapiens, UniProt Q9HAU0); conditions: protein PLEKHA5, U3A cells
[29] = biological target: proteins of U3A human fibrosarcoma cells (4462 proteins detected) (Homo sapiens, UniProt Q5T4S7); conditions: protein UBR4; soluble abundance after heat, U3A cells

Sequence of proteins of U3A human fibrosarcoma cells (4462 proteins detected) (Homo sapiens, UniProt Q9P2R7) (Q9P2R7 53-463): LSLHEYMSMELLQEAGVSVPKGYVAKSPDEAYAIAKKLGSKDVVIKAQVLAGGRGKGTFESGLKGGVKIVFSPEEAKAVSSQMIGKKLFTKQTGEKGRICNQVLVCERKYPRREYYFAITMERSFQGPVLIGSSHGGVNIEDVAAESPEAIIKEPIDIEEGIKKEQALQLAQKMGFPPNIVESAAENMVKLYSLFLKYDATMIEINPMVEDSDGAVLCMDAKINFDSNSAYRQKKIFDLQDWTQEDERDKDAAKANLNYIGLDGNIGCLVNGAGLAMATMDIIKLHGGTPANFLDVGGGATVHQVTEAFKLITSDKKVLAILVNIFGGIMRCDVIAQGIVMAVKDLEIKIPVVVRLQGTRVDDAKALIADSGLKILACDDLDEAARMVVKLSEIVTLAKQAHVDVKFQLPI
Sequence of proteins of U3A human fibrosarcoma cells (4462 proteins detected) (Homo sapiens, UniProt Q96DM3) (Q96DM3 whole entry): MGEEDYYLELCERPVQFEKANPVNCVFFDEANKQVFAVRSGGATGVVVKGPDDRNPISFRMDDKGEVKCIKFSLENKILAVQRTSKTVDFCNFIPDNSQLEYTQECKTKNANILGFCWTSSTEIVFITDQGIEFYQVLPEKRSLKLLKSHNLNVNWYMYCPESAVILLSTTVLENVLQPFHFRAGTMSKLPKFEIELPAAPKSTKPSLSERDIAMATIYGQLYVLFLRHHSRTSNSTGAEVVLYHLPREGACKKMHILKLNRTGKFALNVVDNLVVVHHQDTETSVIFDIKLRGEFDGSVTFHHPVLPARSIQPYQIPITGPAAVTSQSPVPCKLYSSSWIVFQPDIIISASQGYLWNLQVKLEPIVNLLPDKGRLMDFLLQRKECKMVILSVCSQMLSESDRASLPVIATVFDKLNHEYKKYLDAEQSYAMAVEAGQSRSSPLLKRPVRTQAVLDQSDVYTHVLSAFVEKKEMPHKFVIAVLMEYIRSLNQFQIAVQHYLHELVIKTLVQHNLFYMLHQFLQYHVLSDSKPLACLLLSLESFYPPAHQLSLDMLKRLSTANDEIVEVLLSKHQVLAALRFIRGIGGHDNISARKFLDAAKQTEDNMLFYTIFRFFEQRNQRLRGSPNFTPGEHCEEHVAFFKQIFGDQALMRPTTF
Sequence of proteins of U3A human fibrosarcoma cells (4462 proteins detected) (Homo sapiens, UniProt Q8WW01) (Q8WW01 whole entry): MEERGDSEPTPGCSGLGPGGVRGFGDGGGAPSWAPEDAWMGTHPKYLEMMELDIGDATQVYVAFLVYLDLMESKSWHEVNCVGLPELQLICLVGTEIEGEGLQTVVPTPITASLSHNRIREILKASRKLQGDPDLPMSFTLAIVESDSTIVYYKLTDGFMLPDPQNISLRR
Sequence of proteins of U3A human fibrosarcoma cells (4462 proteins detected) (Homo sapiens, UniProt Q8IXJ6) (Q8IXJ6 whole entry): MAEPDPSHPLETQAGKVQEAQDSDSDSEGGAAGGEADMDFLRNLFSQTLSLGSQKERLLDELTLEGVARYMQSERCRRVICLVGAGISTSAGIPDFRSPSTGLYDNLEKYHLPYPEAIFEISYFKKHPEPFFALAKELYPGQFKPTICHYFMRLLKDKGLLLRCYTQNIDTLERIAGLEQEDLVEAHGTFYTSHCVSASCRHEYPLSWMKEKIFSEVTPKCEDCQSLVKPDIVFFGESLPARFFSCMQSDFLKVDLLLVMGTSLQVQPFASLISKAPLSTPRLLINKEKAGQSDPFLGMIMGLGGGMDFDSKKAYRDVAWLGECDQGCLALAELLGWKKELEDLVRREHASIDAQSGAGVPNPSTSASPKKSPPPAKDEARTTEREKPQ
Sequence of proteins of U3A human fibrosarcoma cells (4462 proteins detected) (Homo sapiens, UniProt Q9HCD5) (Q9HCD5 whole entry): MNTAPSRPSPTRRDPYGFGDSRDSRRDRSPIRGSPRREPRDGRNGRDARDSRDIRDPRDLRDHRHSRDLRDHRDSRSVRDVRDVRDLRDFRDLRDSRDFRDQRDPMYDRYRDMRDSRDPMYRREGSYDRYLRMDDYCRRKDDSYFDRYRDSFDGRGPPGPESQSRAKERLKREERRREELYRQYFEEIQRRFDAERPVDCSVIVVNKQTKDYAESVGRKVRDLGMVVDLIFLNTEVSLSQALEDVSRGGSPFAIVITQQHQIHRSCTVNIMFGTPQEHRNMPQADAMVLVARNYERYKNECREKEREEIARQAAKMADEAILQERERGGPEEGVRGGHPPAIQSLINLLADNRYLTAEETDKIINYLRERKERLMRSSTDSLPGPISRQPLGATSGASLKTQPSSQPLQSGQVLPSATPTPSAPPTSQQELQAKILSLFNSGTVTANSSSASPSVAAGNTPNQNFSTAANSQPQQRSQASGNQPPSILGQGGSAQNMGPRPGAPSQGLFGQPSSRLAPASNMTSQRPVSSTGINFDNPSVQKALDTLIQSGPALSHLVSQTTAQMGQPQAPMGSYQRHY
Sequence of proteins of U3A human fibrosarcoma cells (4462 proteins detected) (Homo sapiens, UniProt Q9BUJ2) (Q9BUJ2 whole entry): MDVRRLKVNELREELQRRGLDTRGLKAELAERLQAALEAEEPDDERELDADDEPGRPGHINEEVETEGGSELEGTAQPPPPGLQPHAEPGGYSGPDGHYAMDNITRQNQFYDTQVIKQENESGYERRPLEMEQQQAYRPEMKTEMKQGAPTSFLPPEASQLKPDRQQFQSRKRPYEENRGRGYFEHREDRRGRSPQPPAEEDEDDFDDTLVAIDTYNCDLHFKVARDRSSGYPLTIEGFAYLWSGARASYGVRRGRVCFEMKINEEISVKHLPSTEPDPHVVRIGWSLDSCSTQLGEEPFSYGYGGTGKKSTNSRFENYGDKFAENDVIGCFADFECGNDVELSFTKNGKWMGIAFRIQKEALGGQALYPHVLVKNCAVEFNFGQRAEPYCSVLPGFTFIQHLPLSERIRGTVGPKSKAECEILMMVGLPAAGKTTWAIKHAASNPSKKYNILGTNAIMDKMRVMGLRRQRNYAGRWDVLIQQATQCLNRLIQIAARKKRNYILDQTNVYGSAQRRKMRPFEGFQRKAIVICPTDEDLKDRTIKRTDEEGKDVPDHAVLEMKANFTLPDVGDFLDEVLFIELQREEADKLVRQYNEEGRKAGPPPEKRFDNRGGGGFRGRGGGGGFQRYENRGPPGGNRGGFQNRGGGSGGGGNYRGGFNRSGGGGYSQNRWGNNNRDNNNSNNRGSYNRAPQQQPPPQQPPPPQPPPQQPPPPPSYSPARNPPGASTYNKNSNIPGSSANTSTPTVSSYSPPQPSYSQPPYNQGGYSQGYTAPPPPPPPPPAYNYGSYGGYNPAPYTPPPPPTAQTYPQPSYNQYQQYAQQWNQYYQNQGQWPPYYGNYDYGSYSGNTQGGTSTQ
Sequence of proteins of U3A human fibrosarcoma cells (4462 proteins detected) (Homo sapiens, UniProt P48637) (P48637 whole entry): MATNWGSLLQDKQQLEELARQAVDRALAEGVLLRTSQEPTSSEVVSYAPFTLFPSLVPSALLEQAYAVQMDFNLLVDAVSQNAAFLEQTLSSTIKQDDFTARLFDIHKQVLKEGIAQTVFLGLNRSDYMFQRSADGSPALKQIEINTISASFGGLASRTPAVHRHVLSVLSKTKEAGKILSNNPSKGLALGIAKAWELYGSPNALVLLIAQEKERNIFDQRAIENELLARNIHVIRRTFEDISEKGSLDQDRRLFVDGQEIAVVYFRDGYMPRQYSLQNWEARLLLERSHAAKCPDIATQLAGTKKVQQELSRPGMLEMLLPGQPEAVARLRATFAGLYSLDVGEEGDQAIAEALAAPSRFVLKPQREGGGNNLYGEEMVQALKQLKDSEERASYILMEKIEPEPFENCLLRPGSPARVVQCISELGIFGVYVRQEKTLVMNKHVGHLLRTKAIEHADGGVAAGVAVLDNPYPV
Sequence of proteins of U3A human fibrosarcoma cells (4462 proteins detected) (Homo sapiens, UniProt P34896) (P34896 whole entry): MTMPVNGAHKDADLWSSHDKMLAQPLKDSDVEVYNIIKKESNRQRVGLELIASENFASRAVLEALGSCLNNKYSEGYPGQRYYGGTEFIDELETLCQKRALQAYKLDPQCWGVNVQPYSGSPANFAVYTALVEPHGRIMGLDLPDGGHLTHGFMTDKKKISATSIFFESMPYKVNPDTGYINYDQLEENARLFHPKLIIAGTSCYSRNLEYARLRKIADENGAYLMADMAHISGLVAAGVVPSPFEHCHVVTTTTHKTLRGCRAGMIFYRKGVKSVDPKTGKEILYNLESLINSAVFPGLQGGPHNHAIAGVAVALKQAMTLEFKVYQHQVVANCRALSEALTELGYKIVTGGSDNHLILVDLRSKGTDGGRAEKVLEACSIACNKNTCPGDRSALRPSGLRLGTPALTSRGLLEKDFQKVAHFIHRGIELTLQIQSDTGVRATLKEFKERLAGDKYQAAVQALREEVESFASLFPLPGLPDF
Sequence of proteins of U3A human fibrosarcoma cells (4462 proteins detected) (Homo sapiens, UniProt Q13263) (Q13263 whole entry): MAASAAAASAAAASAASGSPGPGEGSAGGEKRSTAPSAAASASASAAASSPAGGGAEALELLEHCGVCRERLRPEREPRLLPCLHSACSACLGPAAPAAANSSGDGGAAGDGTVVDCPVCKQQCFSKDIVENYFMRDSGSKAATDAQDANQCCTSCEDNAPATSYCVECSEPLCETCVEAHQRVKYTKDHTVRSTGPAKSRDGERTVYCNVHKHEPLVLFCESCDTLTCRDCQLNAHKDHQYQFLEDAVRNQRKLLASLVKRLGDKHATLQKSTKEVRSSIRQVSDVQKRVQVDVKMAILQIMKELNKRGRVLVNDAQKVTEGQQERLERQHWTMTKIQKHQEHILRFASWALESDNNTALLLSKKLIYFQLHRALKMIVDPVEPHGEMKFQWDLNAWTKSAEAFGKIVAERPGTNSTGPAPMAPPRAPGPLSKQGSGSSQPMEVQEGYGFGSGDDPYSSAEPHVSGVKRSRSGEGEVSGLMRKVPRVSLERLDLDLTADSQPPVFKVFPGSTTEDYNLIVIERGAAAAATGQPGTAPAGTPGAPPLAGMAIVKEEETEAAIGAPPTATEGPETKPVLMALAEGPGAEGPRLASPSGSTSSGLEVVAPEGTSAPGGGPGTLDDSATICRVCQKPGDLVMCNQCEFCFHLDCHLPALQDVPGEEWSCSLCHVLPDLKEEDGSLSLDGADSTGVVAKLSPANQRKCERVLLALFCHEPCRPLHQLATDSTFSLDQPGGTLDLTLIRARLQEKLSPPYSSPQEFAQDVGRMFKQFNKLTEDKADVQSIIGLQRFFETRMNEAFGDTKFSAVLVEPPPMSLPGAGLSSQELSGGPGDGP
Sequence of proteins of U3A human fibrosarcoma cells (4462 proteins detected) (Homo sapiens, UniProt Q8NI22) (Q8NI22 27-146): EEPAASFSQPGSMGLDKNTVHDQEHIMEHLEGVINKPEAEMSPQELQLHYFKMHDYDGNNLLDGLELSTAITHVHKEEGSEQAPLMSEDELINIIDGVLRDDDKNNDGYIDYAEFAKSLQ

## CCc1nc(N)nc(N)c1-c1ccc(Cl)cc1 [pyrimethamine]
[1]
  Log2 (PYR/DMSO): -0.05
[2]
  Log2 (PYR/DMSO): 0.14
[3]
  Log2 (PYR/DMSO): 0.20
[4]
  Log2 (PYR/DMSO): 0.21
[5]
  Log2 (PYR/DMSO), ECM1: -0.14
[6]
  Log2 (PYR/DMSO): -0.04
[7]
  Log2 (PYR/DMSO): 0.14
[8]
  Log2 (PYR/DMSO), SUCLA2: 0.23
[9]
  Log2 (PYR/DMSO): 0.17
[10]
  Log2 (PYR/DMSO): 0.16
[11]
  Log2 (PYR/DMSO), TSEN15: -0.15
[12]
  Log2 (PYR/DMSO): -0.05
[13]
  Log2 (PYR/DMSO): -0.04
[14]
  Log2 (PYR/DMSO): 0.17
[15]
  Log2 (PYR/DMSO): 0.15
[16]
  Log2 (PYR/DMSO): 0.19
[17]
  Log2 (PYR/DMSO), H2AFY: 0.33
[18]
  Log2 (PYR/DMSO): 0.20
[19]
  Log2 (PYR/DMSO): 0.14
[20]
  Log2 (PYR/DMSO), CTNNA1: 0.23
[21]
  Log2 (PYR/DMSO): 0.14
[22]
  Log2 (PYR/DMSO): 0.17
[23]
  Log2 (PYR/DMSO): 0.14
[24]
  Log2 (PYR/DMSO): -0.04
[25]
  Log2 (PYR/DMSO): 0.14
[26]
  Log2 (PYR/DMSO): 0.17
[27]
  Log2 (PYR/DMSO): 0.18
[28]
  Log2 (PYR/DMSO): -0.05
[29]
  Log2 (PYR/DMSO): 0.14
